Assay results published in US11166977B2, “Compositions for treating meibomian gland dysfunction” (ADS THERAPEUTICS LLC, priority 2019, dated 2021).

Key:
[1] = Aqueous solution at 37° C.; concentration of CDs 1.0 × 10^−2M; cited from earlier work
[2] = test system: Patients with Primary or Recurrent Pterygium; assay: Phase 2a clinical trial in pterygium patients: ocular symptom and PSLQ questionnaire scores; type: in vivo, human
Source text: 2-HP-β-CD Formulation I was used as vehicle.
A trend of effects also remained after the stop of treatment at weeks 8, 16, and 24. The other questions didn't generate statistically significant effects.
These ocular symptoms are often observed in MGD patients. Scores of these symptoms were graded by patients as part of PSLQ questionnaires.

Compound: OC[C@H]1O[C@@H]2O[C@H]3[C@H](O)[C@@H](O)[C@@H](O[C@H]4[C@H](O)[C@@H](O)[C@@H](O[C@H]5[C@H](O)[C@@H](O)[C@@H](O[C@H]6[C@H](O)[C@@H](O)[C@@H](O[C@H]7[C@H](O)[C@@H](O)[C@@H](O[C@H]1[C@H](O)[C@H]2O)O[C@@H]7CO)O[C@@H]6CO)O[C@@H]5CO)O[C@@H]4CO)O[C@@H]3CO [Alpha-CD, alpha-cyclodextrin]
- Increase in Absorbance (600 nm) Due to Cholesterol Dissolved by CDs [1]: zero

Compound: 2-Hydroxypropyl-beta-cyclodextrin [Formulation 2-HP-β-CD]
- PSLQ Overall Average Score, Baseline Mean (SD) ([2]; Baseline, Modified Intent-to-Treat Population, N = 23): 0.70 (0.66)
- PSLQ Average Ocular Symptom Score, Baseline Mean (SD) ([2]; Baseline, mITT, N = 23): 0.88 (0.81)
- PSLQ Average Quality of Life Impact Score, Baseline Mean (SD) ([2]; Baseline, mITT, N = 23): 0.57 (0.92)
- PSLQ Average Vision-Related Functioning Score, Baseline Mean (SD) ([2]; Baseline, mITT, N = 23): 0.57 (0.80)
- PSLQ Average Vision-Related Functioning Score, Change from Baseline Mean (SD) ([2]; Week 2, mITT, N = 23): −0.27 (0.65)
- PSLQ Average Vision-Related Functioning Score, Change from Baseline Mean (SD) ([2]; Week 4, mITT, N = 23): −0.48 (0.65)
- PSLQ Average Vision-Related Functioning Score, Change from Baseline Mean (SD) ([2]; Week 8, mITT, N = 23): −0.43 (0.62)
- PSLQ Average Vision-Related Functioning Score, Change from Baseline Mean (SD) ([2]; Week 16, mITT, N = 23): −0.23 (0.56)
- PSLQ Average Vision-Related Functioning Score, Change from Baseline Mean (SD) ([2]; Week 24, mITT, N = 23): −0.11 (1.1)
- PSLQ scores compared to the baseline (in words) ([2]; human, in vivo): significant improvements

Compound: OC[C@H]1O[C@@H]2O[C@H]3[C@H](O)[C@@H](O)[C@@H](O[C@H]4[C@H](O)[C@@H](O)[C@@H](O[C@H]5[C@H](O)[C@@H](O)[C@@H](O[C@H]6[C@H](O)[C@@H](O)[C@@H](O[C@H]7[C@H](O)[C@@H](O)[C@@H](O[C@H]8[C@H](O)[C@@H](O)[C@@H](O[C@H]9[C@H](O)[C@@H](O)[C@@H](O[C@H]1[C@H](O)[C@H]2O)O[C@@H]9CO)O[C@@H]8CO)O[C@@H]7CO)O[C@@H]6CO)O[C@@H]5CO)O[C@@H]4CO)O[C@@H]3CO [Gamma-CD, gamma-cyclodextrin]
- Increase in Absorbance (600 nm) Due to Cholesterol Dissolved by CDs [1]: zero

Compound: COC(=O)c1ccc2c(c1)NC(=O)/C2=C(\Nc1ccc(N(C)C(=O)CN2CCN(C)CC2)cc1)c1ccccc1 [Nintedanib 0.2%, nintedanib, reference compound]
- PSLQ scores, Nintedanib 0.2% vs Vehicle (in words) ([2]; pterygium patients with dry eye condition): no statistically significant differences

Compound: COCC1O[C@@H]2O[C@@H]3C(COC)O[C@H](O[C@@H]4C(COC)O[C@H](O[C@@H]5C(COC)O[C@H](O[C@@H]6C(COC)O[C@H](O[C@@H]7C(COC)O[C@H](O[C@@H]8C(COC)O[C@H](O[C@H]1C(O)C2OC)C(OC)C8O)C(OC)C7O)C(OC)C6O)C(OC)C5O)C(OC)C4O)C(OC)C3O (stereo partly drawn) [DOM-beta-CD, 2,6-Di-O-methyl-beta-cyclodextrin]
- Increase in Absorbance (600 nm) Due to Cholesterol Dissolved by CDs [1]: a remarkable increase in absorbance
